Source: patent US9883691B2, “Food and beverage products containing 1,3-propanediol and methods of modifying flavor release using 1,3-propanediol” (Kraft Foods Group Brands LLC, priority 2012, dated 2018)
Where a name gives a salt, the structure may show the parent alone.

Key:
[1] = PTR-MS real-time headspace release, watermelon flavor model in water (Example 1); assay type: physicochemical; set-up: Sample A (PG) Mean / Sample B (1,3-propanediol) Mean: unit not given here
Experimental: The impact of 1,3-propanediol on the release of flavor compounds can be analyzed by Proton Transfer Reaction Mass Spectrometry (PTR-MS; model TOF-8000 from Ionicon Analytik Inc.), where real-time headspace release of volatiles is measured. A sampling apparatus is needed in conjunction with the PTR-MS inlet to prevent variations caused by headspace kinetics. By one exemplary approach, the sampling apparatus includes a 4 ounce sample vessel equipped with a 2-hole lid which may be sealed by an adhesive film to allow equilibration. […]. The holes are equal sized (˜2 mm diameter) and match the outer diameter of the PTR-MS inlet line. The flow of the dilution gas into the vessel is regulated by the vacuum and proportional valve of the PTR-MS inlet system. The sample vessel has a base diameter of 47 mm and is 45 mm high, of which 8 mm of height is occupied by the sample in the vessel in these experiments. The 2 holes in the lid are equidistant from the edge of the vessel (˜20 mm) and about 30 mm from each other. The PTR-MS inlet is braced by clamps in a fixed position vertically above the laboratory bench (˜55 mm) and a silicone rubber depth gauge is affixed to the PTR-MS inlet tubing and set at 18 mm. The PTR-MS inlet is thus consistently oriented in a vertical position 18 mm below the inside lid of the vessel and 19 mm above the sample in the vessel. The sample vessel is then held in place during sampling according to the depth gauge on the inlet line and the vessel is subsequently supported on the bench by a 10 mm plastic spacer.
15 grams of the sample to be tested (e.g., food or beverage product containing 1,3-propanediol) are added to the vessel. The vessel is sealed and allowed to equilibrate at room temperature (˜22° C.) for 90 minutes. At the time of sampling, the seal is removed from both the sampling hole and the dilution gas hole in the lid and the vessel is immediately affixed to the PTR-MS inlet via the sampling hole. The real-time released flavor is measured from the headspace of the sample vessel for two minutes (according to the conditions listed in Table 1 below). A comparative sample is prepared that is otherwise identical to the test sample but contains propylene glycol or water instead of 1,3-propanediol. The comparative sample is then analyzed in triplicate by PTR-MS using the above-described procedure. The data can be analyzed using PTR-MS Viewer, Version 3.0.0.101 (Ionicon Analytik G.m.b.H). The point of maximum intensity for each compound of interest can be determined and recorded according to the PTR-MS Viewer software. The maximum intensity in counts over the timescale for each compound of interest can be used for data analysis as it reflects the static equilibrium headspace concentration in the system at the moment of seal removal. Due to the necessity of a dilution gas, the volatile concentration decreases over time as the compounds of interest re-equilibrate to a state of dynamic equilibrium in the headspace.
[…]. Sample A was prepared with 20 grams watermelon flavor concentrate and 80 grams propylene glycol. Sample B was prepared with 20 grams watermelon flavor concentrate and 80 grams 1,3-propanediol. Each of the samples was further diluted by adding 0.08 grams of each diluted concentrate to 99.92 grams water to provide a flavor water solution.
The diluted samples were analyzed by Proton Transfer Reaction Mass Spectrometry (PTR-MS; model TOF-8000 from Ionicon Analytik Inc.) for real-time headspace release volatiles measurement. Samples were analyzed in triplicate. […]. […].

[2] = not marked (est); cited from earlier work

In the case of `CCOC=O` [Ethyl formate], the “Sample B (1,3-propanediol) Mean” value ([1]; PTR-MS headspace, watermelon flavor concentrate in 1,3-propanediol, diluted in water, 90 minutes equilibration, mean of three) is reported as 41.67, the “Sample A (PG) Mean” value ([1]; PTR-MS headspace, watermelon flavor concentrate in propylene glycol, diluted in water, 90 minutes equilibration, mean of three) is reported as 50.50 and the “Percent Release Difference” value ([1]; Sample B (1,3-propanediol) relative to Sample A (PG)) is reported as −17.5%. For the same compound, the “logP (o/w)” value [2] was 0.23.
